In US20070142348A1, “Microbicidal, prophylactic and therapeutic effect of ctc-96 on papilloma viruses” (REDOX PHARMACEUTICAL CORPORATION, AUDUBON […] AND […], priority 2003, published 2007):
Values joined by “and” are separate entries in the source; they are usually repeats but may differ in a detail not shown here. Equal entries are not always repeated.

Legend:
[1] = system: Bovine Papillomavirus Type 1 (BPV-1); assay: Inhibition of BPV-1 transformation of C127 mouse epithelial cells: exposure of virus to drug prior to infection; format: cell-based; conditions: duplicate values
Protocol: (§1) Experiments were performed to determine if CTC-96™ can inactivate the ability of bovine papillomavirus type 1 (BPV-1) to morphologically transform C127 mouse epithelial cells in culture. Cell-free stocks of BPV-1 were treated with CTC-96™ or placebo. In order to detect the transforming ability of BPV-1, sub-confluent cultures of C127 mouse cells are infected with a standardized inoculate of BPV-1. For the positive controls, stock virus was added to the culture medium present on the cells. The presence of morphologically transformed foci was counted after 2 weeks and then again at 3 weeks. Controls included non-infected cells (with or without drug) and untreated BPV-1.
Bovine Papillomavirus Type 1 (BPV-1) was mixed with CTC-96™, incubated for 10 minutes at 37° C. and then added to the cells. It is clear that CTC-96™ can inhibit the appearance of bovine Papillomavirus type 1 (BPV-1) induced transformation of C127 mouse epithelial cells in culture (Table 9).

[2] = system: Bovine Papillomavirus Type 1 (BPV-1); assay: Inhibition of BPV-1 transformation of C127 mouse epithelial cells: pretreatment and post-treatment combined; format: cell-based
Protocol: as §1
To further clarify the dynamics of CTC-96™ Papillomavirus interaction an experiment was performed to combine exposure of virus to the drug prior to cellular infection and exposure of infected cells to the drug. For this purpose BPV-1 was incubated with either CTC-96™ or placebo, diluted and then added to C127 Mouse Epithelial Cells in culture with the addition of CTC-96™ or placebo (Table 11). Addition of 10 μg/ml or 20 μg/ml CTC-96™ to the cell cultures was toxic to the cells. […] Pre-treatment with 50 μg/ml CTC-96™ but not placebo halved the foci number in the normal medium post-treatment control. Thus a small microbicidal effect is probable even at these low concentrations of CTC-96™. The main activity at these concentrations, however, is post-infection.

[3] = system: HPV-11; assay: Effect of CTC-96 on the infectivity of HPV-11 (virus incubated with CTC-96 prior to infection of foreskin fragments), human xenograft SCID mouse model; format: in vivo, SCID mice; conditions: for Immunocytochemistry: grafts Negative for HPV (number): foreign body/fibrous counted as negative; for Histology: grafts Negative for HPV (number): foreign body reaction/fibrous tissue counted as negative; for Composite Geometric Mean Diameters (cGMD) of the Grafts, Median: 12 weeks; for Composite Geometric Mean Diameters (cGMD) of the Grafts, Mean ± SD: 12 weeks after grafting
Protocol: The effect of CTC-96™ on the infectivity of HPV-11 was evaluated in the human xenograft SCID mouse model. HPV type 11 is, with HPV-6, one of the two viruses responsible for the majority of anogenital warts in humans.
CTC-96™ in saline was incubated with HPV-11 prior to infection of human neonatal foreskin fragments. The fragments were then grafted onto SCID mice. The animals were monitored weekly. They were weighed at the time of grafting, and every other week during the 12 weeks of the experiment. There was no effect of HPV-11 treatment by CTC-96™ on the weight of the mice. The animals were sacrificed by cervical dislocation 12 weeks after graft implantation. Length, width, and height of the graft were measured and recorded. A composite geometric mean diameter (cGMD) of the grafts was calculated for each mouse. The grafts were then removed and analyzed by histology, immunocytochemistry and RT-PCR. Graft evaluation by immunocytochemistry utilized anti-common Papillomavirus antigen^4. Explanted grafts were homogenized and total RNA was extracted. HPV-11 viral cDNA was generated by nested RT-PCR.
Presence of HPV was defined by the presence of two out of three of the following features: acanthosis (an increase in the thickness of the stratum spinosum of the epidermis) koilocytosis (perinuclear vacuolation), or parakeratosis (persistence of the nuclei in the cells of the stratum corneum of the epidermis). As the CTC-96™ concentration increases the percentages of grafts containing HPV decreases, with none positive at the two higher concentrations. […] Two explanations are possible for the high number of foreign body reactions present in the grafts infected with the HPV-11 treated with the two highest concentrations of CTC-96™. The first is that CTC-96™ completely inactivated HPV-11. […] The alternate explanation is that CTC-96™ was toxic to the graft itself. This is unlikely since CTC-96™ has been used in vitro and in vivo in intravaginal preparations without associated toxicities at the concentrations used, and at the lowest concentration of CTC-96™ (0.05%), the number of grafts with a foreign body reaction was not different than that in the control group, thus toxicity would be unlikely to account for the lower number of HPV positive grafts (P=0.0 15; by Fisher exact test). Since CTC-96™ has a clear virucidal action at the lowest concentration (see Table 4), it is reasonable to assume that this virucidal action is present at higher concentrations, independent of the presence of a cytotoxic effect.
Table 4 presents the results and analysis of the HPV RT-PCR, which was performed by extracting total RNA from homogenized, explanted grafts and generating HPV-11 viral cDNA by nested RT-PCR. Using this assay, there is a strong and clear dose-response effect. Only with the highest dose of CTC-96™ is there complete obliteration of viral transcriptional activity.

[4] = system: Bovine Papillomavirus Type 1 (BPV-1); assay: Inhibition of BPV-1 transformation of C127 mouse epithelial cells: exposure of cells pretreated with virus to drug; format: cell-based; conditions: CTC-96 5 μg/ml added 5 hours after virus; counted on day 12; duplicate values
Protocol: as §1
To further evaluate the time course of interaction between CTC-96™ and Papillomavirus the following experiment was performed. Virus was put on C127 mouse epithelial cells in culture at time 0 and incubated for 5 hours. Medium was then removed and replaced with medium plus drug. Cells were then re-fed every 2 days and the experiments counted on day 12.

[5] = pre-treatment 50 μg/ml CTC-96, post-treatment "μg/ml CTC-96" (figure not given)
[6] = pre-treatment 50 μg/ml CTC-96, post-treatment normal medium
[7] = pre-treatment 50 μg/ml CTC-96, post-treatment placebo
[8] = pre-treatment Placebo, post-treatment 5 μg/ml CTC-96
[9] = HPV-11 treated with CTC-96 0.05%
[10] = HPV-11 treated with CTC-96 0.2%
[11] = concentration not printed in the table row (0.2% group)

CC(/C=C(/C)[O-])=NCCN=C(C)/C=C(/C)[O-].Cc1ncc[nH]1.Cc1ncc[nH]1.[Br-].[Co+3] [CTC-96]
Number of Transformed Foci at 3 weeks ([1]; CTC-96 0.1 mg/ml mixed with BPV-1, 10 minutes at 37° C.): 68 and 80 | Number of Transformed Foci at 3 weeks ([1]; CTC-96 0.2 mg/ml mixed with BPV-1, 10 minutes at 37° C.): 80 and 82 | Number of Transformed Foci at 3 weeks ([1]; CTC-96 0.5 mg/ml mixed with BPV-1, 10 minutes at 37° C.): 25 and 40 | Focus formation ([2]; addition of 5 μg/ml CTC-96 to the cell cultures): effectively suppressed all focus formation | Toxicity to C127 cell cultures ([2]; addition of 10 μg/ml or 20 μg/ml CTC-96 to the cell cultures): toxic | Number of Transformed Foci, Experiment 3-1 [2, 5]: 0 | Number of Transformed Foci, Experiment 3-2 [2, 5]: 0 | Number of Transformed Foci, Experiment 3-1 [2, 6]: 71 and 46 | Number of Transformed Foci, Experiment 3-2 [2, 6]: 46 and 41 | Number of Transformed Foci, Experiment 3-1 [2, 7]: 65 and 61 | Number of Transformed Foci, Experiment 3-2 [2, 7]: 39 and 62 | Number of Transformed Foci, Experiment 3-1 [2, 8]: 0 | Number of Transformed Foci, Experiment 3-2 [2, 8]: 0 | Inhibition of the virus by pretreatment of the virus (microbicidal effect) ([2]; pretreatment of BPV-1 with 50 μg/ml CTC-96): 50-60% | Effect on the weight of the mice ([3]; 12 weeks of the experiment): no effect | Histology: grafts Positive for HPV (number) ([3]; CTC-96 0.05%): 4 | Histology: grafts Positive for HPV (percent) ([3]; CTC-96 0.05%): (26.7%) | Immunocytochemistry: grafts Positive for HPV (number) ([3]; CTC-96 0.05%): 2 | Immunocytochemistry: grafts Positive for HPV (percent) ([3]; CTC-96 0.05%): (12.5%) | RT-PCR: grafts HPV-11 Negative (number) ([3]; CTC-96 0.05%): 7 | RT-PCR: grafts HPV-11 Positive (number) ([3]; CTC-96 0.05%): 9 | RT-PCR: grafts HPV-11 Positive (percent) ([3]; CTC-96 0.05%): (56.2%) | Immunocytochemistry: grafts Negative for HPV (number) ([3]; CTC-96 0.05%, anti-common Papillomavirus antigen): 14 | Histology: grafts Negative for HPV (number) ([3]; CTC-96 0.05%): 11 | Histology: grafts Positive for HPV (number) ([3]; CTC-96 0.2%): 0 | Histology: grafts Positive for HPV (percent) ([3]; CTC-96 0.2%): (0%) | Immunocytochemistry: grafts Positive for HPV (number) ([3]; CTC-96 0.2%): 0 | Immunocytochemistry: grafts Positive for HPV (percent) ([3]; CTC-96 0.2%): (0%) | Histology: grafts Negative for HPV (number) ([3]; CTC-96 0.2%): 12 | Immunocytochemistry: grafts Negative for HPV (number) ([3]; CTC-96 0.2%): 12 | Histology: grafts Positive for HPV (number) ([3]; CTC-96 1%): 0 | Histology: grafts Positive for HPV (percent) ([3]; CTC-96 1%): (0%) | Immunocytochemistry: grafts Positive for HPV (number) ([3]; CTC-96 1%): 0 | Immunocytochemistry: grafts Positive for HPV (percent) ([3]; CTC-96 1%): (0%) | RT-PCR: grafts HPV-11 Negative (number) ([3]; CTC-96 1%): 15 | RT-PCR: grafts HPV-11 Positive (number) ([3]; CTC-96 1%): 0 | RT-PCR: grafts HPV-11 Positive (percent) ([3]; CTC-96 1%): (0%) | Histology: grafts Negative for HPV (number) ([3]; CTC-96 1%): 16 | Immunocytochemistry: grafts Negative for HPV (number) ([3]; CTC-96 1%): 17 | Composite Geometric Mean Diameters (cGMD) of the Grafts, Median [3, 9]: 2.01 mm | Composite Geometric Mean Diameters (cGMD) of the Grafts, Mean ± SD [3, 9]: 2.02 ± 0.179 mm | Composite Geometric Mean Diameters (cGMD) of the Grafts, Median [3, 10]: 1.88 mm | Composite Geometric Mean Diameters (cGMD) of the Grafts, Mean ± SD [3, 10]: 1.86 ± 0.196 mm | Composite Geometric Mean Diameters (cGMD) of the Grafts, Median ([3]; HPV-11 treated with CTC-96 1%): 1.94 mm | Composite Geometric Mean Diameters (cGMD) of the Grafts, Mean ± SD ([3]; HPV-11 treated with CTC-96 1%): 1.95 ± 0.139 mm | RT-PCR: grafts HPV-11 Negative (number) [3, 11]: 5 | RT-PCR: grafts HPV-11 Positive (percent) [3, 11]: (28.6%) | Virucidal effect on HPV-11 ([3]; highest concentration of CTC-96 (1%)): completely virucidal | Effect on the animals' mortality or weight gain ([3]; mouse, in vivo): no effect | Number of Transformed Foci, Exp. 1 [4]: 3 and 2 | Number of Transformed Foci, Exp. 2 [4]: 3
